Tested on: nitrification in soil
Assay: closed soil incubation experiment (nitrate and ammonium analyses of incubated soil)
Settings: urea approx. 200 kg N/ha, Horotiu silt loam, 20°C
Method: A closed soil incubation experiment was established with the three compositions or products. The beat treated DCD was added at 10 kg/ha and the DCD/P fertiliser blends were added at 10 kg DCD/ha equivalent.
A control (urea only) and 2 DCD rates (10 kg DCD/ha and 1 kg DCD/ha) were included. Ten kg/ha is a standard rate of DCD application and matches the DCD/P fertiliser rate while 1 kg/ha matches the DCD rate applied in the heat treated product which was 10% W /W DCD. All treatments received urea solution at approximately 200 kg N/ha, and were replicated three times.
The soil was a Horotiu silt loam (Yellow Brown Loam) collected to a depth of approximately 100 mm from a site on the Ruakuta farm. The soil was sieved through a 4 mm sieve and stored at 4 ° C. overnight. Sub-samples were taken to determine the moisture content, soil water holding capacity and initial inorganic N concentration. To measure moisture content, subsamples were dried at 105° C. for 24 hours.
Stock solutions of urea, DCD and heated treated DCD were prepared. The compositions were diluted in water to aid dispersion through the soil and the more accurate addition of small amounts of material. The DCD/fertiliser blends however were weighed and applied dry as the material was largely insoluble.
Each replicated treatment was added to 150 g of dry soil equivalent (195 g field moist soil) in a resealable plastic bag. Distilled water was added as necessary to increase the soil moisture to around 60% of water holding capacity. The contents of each bag were mixed thoroughly, and the bags sealed to include as much air as possible to ensure an aerobic environment was maintained. The bags were placed in an incubator set at 20°C. for the duration of the experiment (14 days).
Soil sub-samples were taken from the bags at 2, 5, 9 and 14 days after incubation commenced for ammonium and nitrate analysis. The equivalent of approximately 5 g dry weight of soil was weighed into 150 mL flasks, 50 mL of 2 M potassium chloride (KCl) was added and the flasks shaken for one hour using end-over-end shakers (Mulvaney, 1996). The extractant was filtered (Whatman #42 filter paper) before being frozen prior to analysis for nitrate-N and ammoniumn-N using a Skalar segmented flow analyser. The data were statistically analysed using the ANOVA directive of GenStat (10th Edition) and L.S.D. (least significant difference) were calculated.

[1] = Day 2, applied at 10 kg/ha (blends 10 kg DCD/ha equivalent)
[2] = Day 5, applied at 10 kg/ha (blends 10 kg DCD/ha equivalent)
[3] = Day 9, applied at 10 kg/ha (blends 10 kg DCD/ha equivalent)
[4] = Day 14, applied at 10 kg/ha (blends 10 kg DCD/ha equivalent)

`N#CN=C(N)N` [DCD, dicyandiamide] was tested, and the “Average ammonium concentration in soil” value (Day 2, applied at 1 kg/ha) was 149.7 μg NH4—N/g soil, the “Average nitrate concentration in soil” value (Day 2, applied at 1 kg/ha) was 55.8 μg NO3—N/g soil and the “Average ammonium concentration in soil” value [1] was 159.7 μg NH4—N/g soil. The “Average nitrate concentration in soil” value [1] was 48.1 μg NO3—N/g soil, the “Average ammonium concentration in soil” value (Day 5, applied at 1 kg/ha) was 81.6 μg NH4—N/g soil and the “Average nitrate concentration in soil” value (Day 5, applied at 1 kg/ha) was 139.4 μg NO3—N/g soil. For the same molecule, the “Average ammonium concentration in soil” value [2] was 106.2 μg NH4—N/g soil, the “Average nitrate concentration in soil” value [2] was 108.7 μg NO3—N/g soil and the “Average ammonium concentration in soil” value (Day 9, applied at 1 kg/ha) was 23.2 μg NH4—N/g soil. For the same molecule, the “Average nitrate concentration in soil” value (Day 9, applied at 1 kg/ha) was 193.7 μg NO3—N/g soil, the “Average ammonium concentration in soil” value [3] was 63.1 μg NH4—N/g soil and the “Average nitrate concentration in soil” value [3] was 148.1 μg NO3—N/g soil. The “Average ammonium concentration in soil” value (Day 14, applied at 1 kg/ha) was 1.3 μg NH4—N/g soil, the “Average nitrate concentration in soil” value (Day 14, applied at 1 kg/ha) was 233.8 μg NO3—N/g soil and the “Average ammonium concentration in soil” value [4] was 22.1 μg NH4—N/g soil. The “Average nitrate concentration in soil” value [4] was 216.6 μg NO3—N/g soil.

Source: US20160176769A1, “PARTICULATE NITRIFICATION INHIBITOR SYSTEMS” (Ballance Agri-Nutrients Limited, priority 2008, published 2016)
